According to ChEMBL document CHEMBL4483862, “Open-source discovery of chemical leads for next-generation chemoprotective antimalarials” (2018):

Tested on: Plasmodium berghei
Assay: Luciferase/luciferin-expressing antifolate-resistant parasites were used to infect a culture of HepG2 cells that were pre-incubated with compounds. Infected hepatocytes emit light due to the luciferase reaction. Assay results are presented as the percent inhibition of light emission compared to control. […]
Assay type: functional
Conditions: sporozoite; for IC90: read-out: LUCIFERASE INFECTION ASSAY - IC90

SMILES	IC90	further results
CN(C)CCNc1nc2sc3c(c2c(=O)n1-c1ccccc1)CCCCC3	> 8.63 µM	IC50 (PBLUC_HILL_SLOPE 1.45, PBLUC_R_SQUARED 0.611, read-out: LUCIFERASE INFECTION ASSAY - IC50): 8.23 µM
Fc1ccc(C(CCNCc2ccccn2)c2ccc(Cl)cc2)cc1 (stereo not given)	> 9.3 µM	IC50 (PBLUC_HILL_SLOPE 1.42, PBLUC_R_SQUARED 0.0971, read-out: LUCIFERASE INFECTION ASSAY - IC50): 5.49 µM
CC(C)(C)c1ccc(Oc2ccc(N)cc2)cc1	4.63 µM	IC50 (PBLUC_HILL_SLOPE 1.38, PBLUC_R_SQUARED 0.811, read-out: LUCIFERASE INFECTION ASSAY - IC50): 0.942 µM
CCOCCCNC(=O)/C(C#N)=C/c1ccc([N+](=O)[O-])o1	> 10 µM	IC50 (PBLUC_HILL_SLOPE 1.42, PBLUC_R_SQUARED 0.135, read-out: LUCIFERASE INFECTION ASSAY - IC50): > 10 µM
CN1N=C2c3ccccc3CCC2C1c1ccc(F)cc1 (stereo not given)	5.64 µM	IC50 (PBLUC_HILL_SLOPE 1.42, PBLUC_R_SQUARED 0.884, read-out: LUCIFERASE INFECTION ASSAY - IC50): 1.2 µM
CC(C)c1ccc(NC(=O)Nc2nc(C(N)COCc3ccccc3)cs2)cc1 (stereo not given)	> 8.04 µM	IC50 (PBLUC_HILL_SLOPE 1.46, PBLUC_R_SQUARED 0.665, read-out: LUCIFERASE INFECTION ASSAY - IC50): 4.91 µM
O=C(Cn1cc(C(=O)c2ccccc2)c2ccccc21)Nc1ccc(F)cc1	> 8.86 µM	IC50 (PBLUC_HILL_SLOPE 1.46, PBLUC_R_SQUARED 0.555, read-out: LUCIFERASE INFECTION ASSAY - IC50): 3.31 µM
CC(=O)Nc1ccc(Oc2ccnc3cc(Cl)ccc23)cc1	> 10 µM	IC50 (PBLUC_HILL_SLOPE 1.43, PBLUC_R_SQUARED 0.691, read-out: LUCIFERASE INFECTION ASSAY - IC50): 3.48 µM
CCCN1CCc2nc(NCc3cccc(Oc4ccccc4)c3)ncc2C1	> 8.81 µM	IC50 (PBLUC_HILL_SLOPE 1.46, PBLUC_R_SQUARED 0.3, read-out: LUCIFERASE INFECTION ASSAY - IC50): 3.92 µM
Cc1cc(/C=C/C(=O)Nc2nccs2)c(C)n1-c1ccccc1	3.27 µM	IC50 (PBLUC_HILL_SLOPE 1.4, PBLUC_R_SQUARED 0.69, read-out: LUCIFERASE INFECTION ASSAY - IC50): 0.681 µM
COc1ccc(S(=O)(=O)N(Cc2ccc(C(=O)NC3CC3)cc2)C2CC2)cc1OC	7.7 µM	IC50 (PBLUC_HILL_SLOPE 1.44, PBLUC_R_SQUARED 0.778, read-out: LUCIFERASE INFECTION ASSAY - IC50): 1.68 µM
COc1ccc(C2c3ccsc3CCN2S(=O)(=O)c2ccc(F)c(Cl)c2)cc1 (stereo not given)	> 7.54 µM	IC50 (PBLUC_HILL_SLOPE 1.37, PBLUC_R_SQUARED 0.631, read-out: LUCIFERASE INFECTION ASSAY - IC50): 3.09 µM
Cc1cc(C(=O)N(C)Cc2nc(=O)c3ccccc3[nH]2)c(C)n1-c1ccccc1F	> 10 µM	IC50 (PBLUC_HILL_SLOPE 1.44, PBLUC_R_SQUARED 0.478, read-out: LUCIFERASE INFECTION ASSAY - IC50): 6.97 µM
C=CCN(C(=O)c1sc2nc3n(c(=O)c2c1C)CCCCC3)c1nc2c(s1)CCCC2	> 10 µM	IC50 (PBLUC_HILL_SLOPE 1.42, PBLUC_R_SQUARED 0.275, read-out: LUCIFERASE INFECTION ASSAY - IC50): > 10 µM
Cc1cc(Cl)ccc1S(=O)(=O)N(Cc1ccncc1)C1CC1	7.99 µM	IC50 (PBLUC_HILL_SLOPE 1.42, PBLUC_R_SQUARED 0.462, read-out: LUCIFERASE INFECTION ASSAY - IC50): 1.69 µM
O=C(/C=C/c1ccccc1)Nc1ccc(C23CC4CC(CC(O)(C4)C2)C3)cc1	9.39 µM	IC50 (PBLUC_HILL_SLOPE 1.46, PBLUC_R_SQUARED 0.646, read-out: LUCIFERASE INFECTION ASSAY - IC50): 2.09 µM
COc1cc(/C=C/C(=O)c2ccc3[nH]c(=O)[nH]c3c2)cc(Cl)c1OC(F)F	> 10 µM	IC50 (PBLUC_HILL_SLOPE 1.43, PBLUC_R_SQUARED 0.612, read-out: LUCIFERASE INFECTION ASSAY - IC50): 6.07 µM
COc1ccc(NC(=O)c2cccc3c[nH]nc23)cc1Cc1ccccc1	9.56 µM	IC50 (PBLUC_HILL_SLOPE 1.42, PBLUC_R_SQUARED 0.679, read-out: LUCIFERASE INFECTION ASSAY - IC50): 2.02 µM
NC(=O)c1cc(-c2cs/c(=N\c3ccccc3F)n2C2CCCC2)ccc1O	> 10 µM	IC50 (PBLUC_HILL_SLOPE 1.38, PBLUC_R_SQUARED 0.237, read-out: LUCIFERASE INFECTION ASSAY - IC50): 4.32 µM
O=C(Nc1ccc(OC(F)(F)F)cc1)c1ccc(=O)n(Cc2ccc(Cl)cc2)c1	> 7.81 µM	IC50 (PBLUC_HILL_SLOPE 1.46, PBLUC_R_SQUARED 0.0131, read-out: LUCIFERASE INFECTION ASSAY - IC50): 7.46 µM

SMILES	IC90	further results
CNc1nc(SCCS(=O)(=O)c2ccccc2)nc2ccccc12	6.83 µM	IC50 (PBLUC_HILL_SLOPE 1.42, PBLUC_R_SQUARED 0.718, read-out: LUCIFERASE INFECTION ASSAY - IC50): 1.45 µM
O=c1[nH]nc(CSc2ccccn2)c2ccccc12	> 12.3 µM	IC50 (PBLUC_HILL_SLOPE 1.43, PBLUC_R_SQUARED 0.267, read-out: LUCIFERASE INFECTION ASSAY - IC50): 10 µM
CNC(=O)c1ccc(CN(C2CC2)S(=O)(=O)c2ccc(C(F)(F)F)cc2)cc1	> 10 µM	IC50 (PBLUC_HILL_SLOPE 1.42, PBLUC_R_SQUARED 0.391, read-out: LUCIFERASE INFECTION ASSAY - IC50): 3.3 µM
FC(F)(F)c1c(-c2nc(-c3ccc(Cl)cc3)no2)cnn1-c1ccccc1	1.19 µM	IC50 (PBLUC_HILL_SLOPE 1.45, PBLUC_R_SQUARED 0.734, read-out: LUCIFERASE INFECTION ASSAY - IC50): 0.262 µM
O=C(NCc1ccc(Cl)cc1Cl)/C(=C/c1cccs1)n1nnnc1-c1ccccc1	> 10 µM	IC50 (PBLUC_HILL_SLOPE 1.46, PBLUC_R_SQUARED 0.613, read-out: LUCIFERASE INFECTION ASSAY - IC50): 4.83 µM
Cc1cccc(C)c1Nc1nnc(C(O)c2ccc(F)c(Cl)c2)s1 (stereo not given)	> 10 µM	IC50 (PBLUC_HILL_SLOPE 1.46, PBLUC_R_SQUARED 0.342, read-out: LUCIFERASE INFECTION ASSAY - IC50): 2.96 µM
Cc1cccc(C)c1N1C(=O)CC(N2CCCC(c3nc4ccccc4s3)C2)C1=O (stereo not given)	9.05 µM	IC50 (PBLUC_HILL_SLOPE 1.45, PBLUC_R_SQUARED 0.739, read-out: LUCIFERASE INFECTION ASSAY - IC50): 1.99 µM
N#CCCN(C(=O)CSc1nc2cc(S(=O)(=O)Nc3ccc(Cl)cc3)ccc2o1)c1ccccc1	7.89 µM	IC50 (PBLUC_HILL_SLOPE 1.44, PBLUC_R_SQUARED 0.751, read-out: LUCIFERASE INFECTION ASSAY - IC50): 1.72 µM
Cc1ccc(OCc2n[nH]c(=S)n2C2CCCCC2)c2c1CCC2	> 9.61 µM	IC50 (PBLUC_HILL_SLOPE 1.42, PBLUC_R_SQUARED 0.362, read-out: LUCIFERASE INFECTION ASSAY - IC50): > 9.61 µM
Cc1c(C)n(CCN(C)C)c2ncn3nc(-c4ccccc4O)nc3c12	> 9.42 µM	IC50 (PBLUC_HILL_SLOPE 1.46, PBLUC_R_SQUARED 0.808, read-out: LUCIFERASE INFECTION ASSAY - IC50): 2.21 µM
CCC(C)(C)NS(=O)(=O)c1ccc(C(C)(C)C)cc1	> 10 µM	IC50 (PBLUC_HILL_SLOPE 1.46, PBLUC_R_SQUARED 0.189, read-out: LUCIFERASE INFECTION ASSAY - IC50): > 10 µM
O=C(Nc1nccs1)c1ccc(N2CCCCCC2)nc1	> 10 µM	IC50 (PBLUC_HILL_SLOPE 1.4, PBLUC_R_SQUARED 0.612, read-out: LUCIFERASE INFECTION ASSAY - IC50): 2.36 µM
OC(c1cn2cc(-c3ccccc3)nc2s1)(C(F)(F)F)C(F)(F)F	1.73 µM	IC50 (PBLUC_HILL_SLOPE 1.37, PBLUC_R_SQUARED 0.781, read-out: LUCIFERASE INFECTION ASSAY - IC50): 0.348 µM
Fc1cccc(-c2nccc3n[nH]c(-c4cccc(OC(F)(F)F)c4)c23)c1	> 10 µM	IC50 (PBLUC_HILL_SLOPE 1.45, PBLUC_R_SQUARED 0.246, read-out: LUCIFERASE INFECTION ASSAY - IC50): 5.34 µM
CC(c1cccc(NC(=O)c2ccccc2)c1)N(C)c1ccc(C#N)cn1 (stereo not given)	> 10 µM	IC50 (PBLUC_HILL_SLOPE 1.47, PBLUC_R_SQUARED 0.583, read-out: LUCIFERASE INFECTION ASSAY - IC50): 3.04 µM
COc1cccc(N2CCN(CC(=O)c3c[nH]c4ccccc34)CC2C)c1 (stereo not given)	> 9.08 µM	IC50 (PBLUC_HILL_SLOPE 1.43, PBLUC_R_SQUARED 0.653, read-out: LUCIFERASE INFECTION ASSAY - IC50): 4.63 µM
COc1ccc(-c2[nH]c3ccc(F)cc3c2CCC(=O)NCc2nnc3ccccn23)cc1	> 10 µM	IC50 (PBLUC_HILL_SLOPE 1.44, 1.44, PBLUC_R_SQUARED 0.412, 0.538, read-out: LUCIFERASE INFECTION ASSAY - IC50): 5.36 µM
Cc1cc(C)c(S(=O)(=O)N2CCC(C(=O)N3CCn4c3nc3ccccc34)CC2)c(C)c1	> 10 µM	IC50 (PBLUC_HILL_SLOPE 1.44, PBLUC_R_SQUARED 0.637, read-out: LUCIFERASE INFECTION ASSAY - IC50): 3.45 µM
O=C(Nc1nnc(-c2ccco2)s1)c1csc(COc2ccc(Cl)cc2)n1	> 10 µM	IC50 (PBLUC_HILL_SLOPE 1.45, PBLUC_R_SQUARED 0.301, read-out: LUCIFERASE INFECTION ASSAY - IC50): 4.28 µM
c1ccc(Nc2nc(-c3ccc4c(c3)CCC4)cs2)nc1	> 10 µM	IC50 (PBLUC_HILL_SLOPE 1.40, 0.464, PBLUC_R_SQUARED 0.303, 0.681, read-out: LUCIFERASE INFECTION ASSAY - IC50): 4.84 µM
